Measured values published in patent US9815835B2, “Substituted polycyclic carbamolypyridone derivative” (priority 2009, dated 2017).

What was measured:
influenza virus = experiment: microbe, parasite or virus in culture; format: cell-based, influenza virus (MDBK or MDCK cells); settings: unidentified influenza virus, 72 h, read-out: CPE EC50, effective concentration to achieve 50% CPE inhibition, 3 days incubation, WST-8
[1] = target: cap-dependent endonuclease (RNP fraction containing PB1•PB2•PA complex) (Influenza A virus, UniProt P15659); experiment: biochemical; settings: RNP from A/WSN/33 virus, capped Cy3/BHQ2 30mer RNA substrate, 60 minutes at room temperature; read-out: CEN IC50

SMILES | EC50 (influenza virus) [nM] | IC50 [1] [nM]
CC(C)N1CN([C@@H]2c3ccccc3[C@@H]3[C@H](c4ccccc42)C3(F)F)n2ccc(=O)c(O)c2C1=O [Example 386] | 96 | 75
CC(C)N1CN(C2c3ccccc3NC(=O)c3ccccc32)n2ccc(=O)c(O)c2C1=O (stereo not shown) [Example 387] | 1150 | 300
CC(C)N1CN(C2c3ccccc3CCc3ccsc32)n2ccc(=O)c(O)c2C1=O (stereo not shown) [Example 388] | 63 | 133
CC(C)N1CN(C2c3ccccc3COc3c(Cl)cccc32)n2ccc(=O)c(O)c2C1=O (stereo not shown) [Example 390] | 29 | 95
O=C1c2c(O)c(=O)ccn2N(C2c3ccccc3COc3ccccc32)CN1C1CC1 (stereo not shown) [Example 392] | 25 | 153
COCCN1CN(C2c3ccccc3COc3ccccc32)n2ccc(=O)c(O)c2C1=O (stereo not shown) [Example 394] | 64 | 87
CN1CN(C2c3ccccc3COc3ccccc32)n2ccc(=O)c(O)c2C1=O (stereo not shown) [Example 395] | 89 | 43
CC(C)N1CN(C2c3ccccc3COc3ccc(Cl)cc32)n2ccc(=O)c(O)c2C1=O (stereo not shown) [Example 398] | 118 | 34
CC(C)N1CN(C2c3ccccc3COc3cc(F)ccc32)n2ccc(=O)c(O)c2C1=O (stereo not shown) [Example 399] | 61 | 105
COCCN1CN(C2c3ccccc3COc3c(F)cccc32)n2ccc(=O)c(O)c2C1=O (stereo not shown) [Example 400] | 79 | 67
COCCN1CN(C2c3cc(F)ccc3COc3ccccc32)n2ccc(=O)c(O)c2C1=O (stereo not shown) [Example 404] | 63 | 84
COCCN1CN(C2c3ccccc3OCc3c(F)cccc32)n2ccc(=O)c(O)c2C1=O (stereo not shown) [Example 405] | 51 | 74
CC(C)N1CN(C2c3ccccc3OCc3c(F)cccc32)n2ccc(=O)c(O)c2C1=O (stereo not shown) [Example 407] | 17 | 35
CC(C)N1CN(C2c3cc(Cl)ccc3COc3ccccc32)n2ccc(=O)c(O)c2C1=O (stereo not shown) [Example 408] | 61 | 135
C[C@@H](N1CN(C2c3ccccc3COc3c(Cl)cccc32)n2ccc(=O)c(O)c2C1=O)C(F)(F)F (stereo partly shown) [Example 411] | 14 | 46
CC(C)c1cccc2c1OCc1ccccc1C2N1CN(C(C)C)C(=O)c2c(O)c(=O)ccn21 (stereo not shown) [Example 412] | 203 | 292
C[C@H](N1CN([C@@H]2c3ccccc3SCc3c(Cl)cccc32)n2ccc(=O)c(O)c2C1=O)C(F)(F)F [Example 419] | 19 | 124
C[C@H](N1CN([C@H]2c3ccc(Cl)cc3CSc3ccccc32)n2ccc(=O)c(O)c2C1=O)C(F)(F)F [Example 420] | 21 | 58
C[C@H](N1CN([C@H]2c3ccccc3CSc3c(Cl)cccc32)n2ccc(=O)c(O)c2C1=O)C(F)(F)F [Example 423] | 19 | 280
C[C@@H](N1CN([C@H]2c3ccc(Br)cc3CSc3ccccc32)n2ccc(=O)c(O)c2C1=O)C(F)(F)F [Example 433] | 17 | 14
C[C@@H](N1CN([C@H]2c3ccccc3SCc3c(F)cccc32)n2ccc(=O)c(O)c2C1=O)C(F)(F)F [Example 445] | 4 | 13

SMILES | EC50 (influenza virus) [nM] | IC50 [1] [nM]
C[C@@H](N1CN([C@H]2c3ccc(Cl)cc3CSc3ccccc32)n2ccc(=O)c(O)c2C1=O)C(F)(F)F [Example 446] | 11 | 7
C[C@H](N1CN([C@H]2c3cc(F)ccc3CSc3ccccc32)n2ccc(=O)c(O)c2C1=O)C(F)(F)F [Example 447] | 18 | 96
C[C@@H](N1CN([C@H]2c3ccccc3CSc3cc(Cl)ccc32)n2ccc(=O)c(O)c2C1=O)C(F)(F)F [Example 449] | 21 | 62
C[C@H](N1CN([C@@H]2c3ccccc3SCc3c(F)cccc32)n2ccc(=O)c(O)c2C1=O)C(F)(F)F [Example 452] | 16 | 177
C[C@H](N1CN([C@@H]2c3ccccc3SCc3cccc(F)c32)n2ccc(=O)c(O)c2C1=O)C(F)(F)F [Example 457] | 14 | 242
Cc1cccc2c1CSc1ccccc1[C@H]2N1CN([C@H](C)C(F)(F)F)C(=O)c2c(O)c(=O)ccn21 [Example 464] | 14 | 24
C[C@@H](N1CN([C@@H]2c3ccccc3SCc3c(C#N)cccc32)n2ccc(=O)c(O)c2C1=O)C(F)(F)F [Example 476] | 14 | 31
CN(C)CCN1CN(C2c3ccccc3CCc3ccccc32)n2ccc(=O)c(O)c2C1=O [Example 478] | 129 | 88
CC(CN1CCOCC1)N1CN(C2c3ccccc3CCc3ccccc32)n2ccc(=O)c(O)c2C1=O (stereo not shown) [Example 482] | 31 | 103
CC(CN1CCN(C)CC1)N1CN(C2c3ccccc3CSc3ccccc32)n2ccc(=O)c(O)c2C1=O (stereo not shown) [Example 485] | 424 | 221
CC(CN1CCCCC1)N1CN(C2c3ccccc3CCc3ccccc32)n2ccc(=O)c(O)c2C1=O (stereo not shown) [Example 486] | 72 | 140
CC(CN1CCCCC1)N1CN(C2c3ccccc3CSc3ccccc32)n2ccc(=O)c(O)c2C1=O (stereo not shown) [Example 487] | 26 | 91
CC(CN1CCSCC1)N1CN(C2c3ccccc3CCc3ccccc32)n2ccc(=O)c(O)c2C1=O (stereo not shown) [Example 488] | 27 | 151
CC(CN1CCSCC1)N1CN(C2c3ccccc3CSc3ccccc32)n2ccc(=O)c(O)c2C1=O (stereo not shown) [Example 489] | 14 | 133
CCN1C(=O)c2c(O)c(=O)ccn2C(C(c2ccccc2)C2CCCCC2)N1CC (stereo not shown) [Example 493] | 101 | 112
COCCN1C(=O)c2c(O)c(=O)ccn2C(C(c2ccccc2)c2ccccc2)N1C (stereo not shown) [Example 495] | 310 | 277
CN1C(=O)c2c(O)c(=O)ccn2C(C(c2ccccc2)c2ccccc2)N1C (stereo not shown) [Example 496] | 177 | 170
CN1C(C(c2ccccc2)c2ccccc2)n2ccc(=O)c(O)c2C(=O)N1CCOc1ccc(F)cc1 (stereo not shown) [Example 497] | 511 | 215
CCN1C(=O)c2c(O)c(=O)ccn2C(C(c2ccccc2)c2ccccc2)N1CC (stereo not shown) [Example 498] | 351 | 161
CC(C)N1CN(C2c3ccccc3CCc3ccccc32)n2cc(CF)c(=O)c(O)c2C1=O [Example 508] | 56 | 36
CC(C)N1CN(C2c3ccccc3CSc3ccccc32)n2cc(CF)c(=O)c(O)c2C1=O (stereo not shown) [Example 509] | 14 | 15

SMILES | EC50 (influenza virus) [nM] | IC50 [1] [nM]
COCCC1N(C(C)C)C(=O)c2c(O)c(=O)ccn2N1C1c2ccccc2CCc2ccccc21 (stereo not shown) [Example 511] | 15 | 175
COCC1N(C(C)C)C(=O)c2c(O)c(=O)ccn2N1C1c2ccccc2CCc2ccccc21 (stereo not shown) [Example 515] | 19 | 197
CSCCC1N(C(C)C)C(=O)c2c(O)c(=O)ccn2N1C1c2ccccc2CCc2ccccc21 (stereo not shown) [Example 516] | 17 | 39
COC(OC)C1N(C(C)C)C(=O)c2c(O)c(=O)ccn2N1C1c2ccccc2CCc2ccccc21 (stereo not shown) [Example 520] | 17 | 212
CC(C)N1C(=O)c2c(O)c(=O)ccn2N(C2c3ccccc3CCc3ccccc32)C1CCC(F)(F)F (stereo not shown) [Example 521] | 15 | 191
COCCCC1N(C(C)C)C(=O)c2c(O)c(=O)ccn2N1C1c2ccc(Cl)cc2CCc2cc(Cl)ccc21 (stereo not shown) [Example 524] | 26 | 57
CC(C)N1C(=O)c2c(O)c(=O)ccn2N(C2c3ccccc3CCc3ccccc32)C1c1ccc(Cl)cc1 (stereo not shown) [Example 527] | 88 | 127
CC(C)N1C(=O)c2c(O)c(=O)ccn2N(C2c3ccccc3CCc3ccccc32)C1CN (stereo not shown) [Example 532] | 75 | 98
CC(C)N1C(=O)c2c(O)c(=O)ccn2N(C2c3ccccc3CCc3ccccc32)C1CN(C)C (stereo not shown) [Example 536] | 27 | 71
COC(=O)NCC1N(C(C)C)C(=O)c2c(O)c(=O)ccn2N1C1c2ccccc2CCc2ccccc21 (stereo not shown) [Example 544] | 51 | 168
CSCC(=O)NCC1N(C(C)C)C(=O)c2c(O)c(=O)ccn2N1C1c2ccccc2CCc2ccccc21 (stereo not shown) [Example 546] | 124 | 202
CC(C)N1C(=O)c2c(O)c(=O)ccn2N(C2c3ccccc3CCc3ccccc32)C1CO (stereo not shown) [Example 547] | 27 | 32
CC(C)N1C(=O)c2c(O)c(=O)ccn2N(C2c3ccccc3CCc3ccccc32)C1CCO (stereo not shown) [Example 548] | 38 | 86
NCC1N(CCO)C(=O)c2c(O)c(=O)ccn2N1C1c2ccccc2CCc2ccccc21 (stereo not shown) [Example 549] | 2100 | 76
COCCC1N(CCO)C(=O)c2c(O)c(=O)ccn2N1C1c2ccccc2CCc2ccccc21 (stereo not shown) [Example 552] | 85 | 230
O=C1c2c(O)c(=O)ccn2N(C2c3ccccc3CCc3ccccc32)C(CO)N1CCO (stereo not shown) [Example 554] | 465 | 65
COC[C@H](C)N1C(=O)c2c(O)c(=O)ccn2N(C2c3ccccc3CCc3ccccc32)[C@@H]1CO [Example 555] | 12 | 23
COCCN1C[C@H](C(c2ccccc2)c2ccccc2)n2cc(C)c(=O)c(O)c2C1=O [Example 557] | 2470 | 281
CN1C[C@H](C2c3ccccc3CSc3ccccc32)n2cc(C(=O)O)c(=O)c(O)c2C1=O (stereo partly shown) [Example 560] | 173 | 27
CC(C)N1C[C@H](C2c3ccccc3CSc3ccccc32)n2ccc(=O)c(O)c2C1=O (stereo partly shown) [Example 561] | 8 | 73
